Data on six compounds can be found in US10196363B2, “Dihydropyrimidin-2-one compounds and medical use thereof” (JAPAN TOBACCO INC., priority 2014, dated 2019).

The target of test [1] is T1, human RORγ (Homo sapiens, UniProt P51449).
T1 construct: human RORγ, from Ser253 to Lys518; expressed in transfected cells; host or cells: CHO cells (Chinese hamster ovary), transient co-transfection with pG5-Luc
T1 sequence (P51449 253-518): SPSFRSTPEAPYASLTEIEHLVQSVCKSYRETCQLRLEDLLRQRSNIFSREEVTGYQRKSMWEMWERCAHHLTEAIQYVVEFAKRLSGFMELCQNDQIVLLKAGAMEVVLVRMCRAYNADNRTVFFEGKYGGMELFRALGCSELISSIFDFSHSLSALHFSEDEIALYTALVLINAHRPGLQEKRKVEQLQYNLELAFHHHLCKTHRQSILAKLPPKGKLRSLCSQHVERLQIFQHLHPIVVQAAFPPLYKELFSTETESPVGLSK
The test is described as follows: In vitro assay of inhibitory effect against RORγ transcriptional activity (GAL4-hRORγ LBD luciferase reporter gene assay in CHO cells). In kind it is cell-based. The following applies: GAL4-hRORγ LBD luciferase reporter, CHO cells; read-out: LUC EC50 hRORγ. Put shortly: (§1)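 CHO cells were transiently co-transfected with a GAL4-DBD fusion of the human (Ser253–Lys518) or mouse (Ile251–Lys516) RORγ LBD plus a GAL4-luciferase reporter. Cells were treated with 8 compound concentrations (0.2% DMSO) for 2 days at 37 °C. Luciferase was expressed as %-of-vehicle control, EC50 was curve-fitted, and cytotoxic concentrations were excluded.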

In test [2] the target is T2, mouse RORγ (Mus musculus, UniProt P51450).
T2 construct: mouse RORγ, from Ile251 to Lys516; expressed in transfected cells; host or cells: CHO cells (Chinese hamster ovary), transient co-transfection with pG5-Luc
T2 sequence (P51450 251-516): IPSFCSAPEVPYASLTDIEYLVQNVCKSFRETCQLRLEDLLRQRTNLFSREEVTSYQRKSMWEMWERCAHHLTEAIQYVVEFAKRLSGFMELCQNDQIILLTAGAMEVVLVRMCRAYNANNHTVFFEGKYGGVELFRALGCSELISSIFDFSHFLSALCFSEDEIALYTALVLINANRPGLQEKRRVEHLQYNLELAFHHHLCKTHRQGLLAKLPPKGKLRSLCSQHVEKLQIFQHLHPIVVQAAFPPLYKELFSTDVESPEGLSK
Nature of the test: In vitro assay of inhibitory effect against RORγ transcriptional activity (GAL4-mRORγ LBD luciferase reporter gene assay in CHO cells). In kind it is cell-based. Particulars: GAL4-mRORγ LBD luciferase reporter, CHO cells; read-out: LUC EC50 mRORγ. A digest of the protocol: as §1

In the case of `C[C@@]1(c2ccc(OCCC3CC3)c(Cl)c2)NC(=O)N(c2ccc(C(=O)O)cc2)C=C1C1CC(F)(F)C1` [Example 350], the EC50 in test [1] stood at 109 nM; in test [2] it was 52 nM.
Taken in the same sequence, the figures for `CC(C)(C)COc1ccc([C@]2(C)NC(=O)N(c3ccc(C(=O)O)cc3)C=C2C2CC(F)(F)C2)cc1Cl` [Example 353] were 59 nM and 45 nM.
For `C[C@@]1(c2ccc(OCCC3CC3)c(Cl)c2)NC(=O)N(C23CC(C(=O)O)(C2)C3)C=C1C1CC(F)(F)C1` [Example 354] the same measures were 239 nM and 144 nM.
Taken in the same sequence, the figures for `CC(C)(C)COc1ccc([C@]2(C)NC(=O)N(C34CC(C(=O)O)(C3)C4)C=C2C2CC(F)(F)C2)cc1Cl` [Example 355] were 113 nM and 52 nM.
Turning to `CC(C)C1=CN(c2ccc(C(=O)O)cc2)C(=O)N[C@@]1(C)c1ccc(CCC(C)(C)C)c(F)c1` [Example 356], the EC50 in test [1] worked out at 21 nM; in test [2] it was 15 nM.
For `C[C@@]1(c2ccc(OCCC3CCC3)c(Cl)c2)NC(=O)N(C23CC(C(=O)O)(C2)C3)C=C1C1CC(F)(F)C1` [Example 357] the same measures were 34 nM and 29 nM.
